Source: patent US20240309005A1 (priority 2021, published 2024)
In brackets after ≈: the same amount, converted by molar mass. Where a name gives a salt, the structure may show the parent alone.

Columns and labels:
physchem = conditions: 25 °C, kinetic from dmso stock
in vivo [1] = conditions: male, CD1, mouse; for Cmax / bioavailability: po, 30 mg/kg
in vivo [2] = conditions: male, SD, rat; for bioavailability / Cmax: po, 30 mg/kg; for Cmax: Cmax (ng/ml)

solubility at 2 h (physchem; pH 5, fessif) | solubility at 2 h (physchem; pH 7.4, aqueous buffer) | Cmax (in vivo [1]) | bioavailability (in vivo [1]) | half-life (in vivo [1]) | half-life (in vivo [2]) | bioavailability (in vivo [2]) | Cmax (in vivo [2]) | SMILES | hERG/IC50 (hERG / SGK1 (whole cell))
289 µM (≈ 136 µg/mL) | 282 µM (≈ 133 µg/mL) | – | – | – | – | – | – | Cc1n[nH]c2nc(-c3ccc(NS(=O)(=O)c4ccncc4F)cc3)nc(NCCN(C)C)c12 [Compound 15, N-[4-(4-[[2-(dimethylamino)ethyl]amino]-3-methyl-1H-pyrazolo[3,4-d]pyrimidin-6-yl)phenyl]-3-fluoropyridine-4-sulfonamide] | 4.7
268 µM (≈ 139 µg/mL) | 52 µM (≈ 26.9 µg/mL) | 2.3 ng/mL | 0.5% | – | – | – | – | Cc1n[nH]c2nc(-c3ccc(NS(=O)(=O)c4cc(Cl)ccc4F)cc3)nc(NCCN(C)C=O)c12 [Compound 18, N-[2-([6-[4-(5-chloro-2-fluorobenzenesulfonamide)phenyl]-3-methyl-1H-pyrazolo[3,4-d]pyrimidin-4-yl]amino)ethyl]-N-methylformamide] | –
276 µM (≈ 144 µg/mL) | 295 µM (≈ 154 µg/mL) | 548 ng/mL | 18.8% | 4.4 h | – | – | – | Cc1n[nH]c2nc(-c3ccc(NS(=O)(=O)c4cc(C(F)(F)F)ccn4)cc3)nc(NCCN(C)C)c12 [Compound 30, N-(4-(4-((2-(dimethylamino)ethyl)amino)-3-methyl-1H-pyrazolo[3,4-d]pyrimidin-6-yl)phenyl)-4-(trifluoromethyl)pyridine-2-sulfonamide] | –
298 µM (≈ 156 µg/mL) | 15.9 µM (≈ 8.3 µg/mL) | 2340 ng/mL | 41% | 2.2 h | – | – | – | Cc1n[nH]c2nc(-c3ccc(NS(=O)(=O)c4cc(Cl)ccc4F)c(F)c3)nc(NCCN(C)C)c12 [Compound 38, 5-chloro-N-(4-(4-((2-(dimethylamino)ethyl)amino)-3-methyl-1H-pyrazolo[3,4-d]pyrimidin-6-yl)-2-fluorophenyl)-2-fluorobenzenesulfonamide] | –
– | – | 54.9 ng/mL | – | 3.2 h | – | – | – | Cc1n[nH]c2nc(-c3ccc(NS(=O)(=O)c4cc(Cl)ccc4F)cc3)nc(O[C@@H]3CCN(CCO)C[C@@H]3F)c12 [Compound 50, 5-chloro-2-fluoro-N-[4-(4-{[(3S,4R)-3-fluoro-1-(2-hydroxyethyl)piperidin-4-yl]oxy}-3-methyl-1H-pyrazolo[3,4-d]pyrimidin-6-yl)phenyl]benzenesulfonamide] | –
311 µM (≈ 159 µg/mL) | 265 µM (≈ 135 µg/mL) | 143 ng/mL | – | 1.5 h | – | – | – | Cc1n[nH]c2nc(-c3ccc(NS(=O)(=O)c4cc(OC(C)C)ccn4)cc3)nc(NCCN(C)C)c12 [Compound 73, N-[4-(4-{[2-(dimethylamino)ethyl]amino}-3-methyl-1H-pyrazolo[3,4-d]pyrimidin-6-yl)phenyl]-4-isopropoxypyridine-2-sulfonamide] | –
– | – | 16.8 ng/mL | 0.75% | 2.2 h | – | – | – | COc1ccc(F)c(S(=O)(=O)Nc2ccc(-c3nc(NCCN(C)CCO)c4c(C)n[nH]c4n3)cc2)c1 [Compound 77, 2-fluoro-N-{4-[4-({2-[(2-hydroxyethyl)(methyl)amino]ethyl}amino)-3-methyl-1H-pyrazolo[3,4-d]pyrimidin-6-yl]phenyl}-5-methoxybenzenesulfonamide] | –
321 µM (≈ 176 µg/mL) | 2.6 µM (≈ 1.43 µg/mL) | 3720 ng/mL | 128% | 3 h | 5.06 h | 40.5% | 3400 ng/mL | Cc1n[nH]c2nc(-c3ccc(NS(=O)(=O)c4cc(Cl)ccc4F)c(F)c3)nc(OC3CCN(C)CC3)c12 [Compound 79, 5-chloro-2-fluoro-N-(2-fluoro-4-{3-methyl-4-[(1-methylpiperidin-4-yl)oxy]-1H-pyrazolo[3,4-d]pyrimidin-6-yl}phenyl)benzenesulfonamide] | –
– | – | 607 ng/mL | 4.5% | 1.7 h | – | – | – | Cc1n[nH]c2nc(-c3ccc(NS(=O)(=O)c4cc(Cl)ccc4F)cc3)nc(NCCN(C)CCOC(=O)C(C)(C)C)c12 [Compound 82, 2-{[2-({6-[4-(5-chloro-2-fluorobenzenesulfonamido)phenyl]-3-methyl-1H-pyrazolo[3,4-d]pyrimidin-4-yl}amino)ethyl](methyl)amino}ethyl 2,2-dimethylpropanoate] | –
– | – | 788 ng/mL | 4.9% | 2.4 h | – | – | – | Cc1n[nH]c2nc(-c3ccc(NS(=O)(=O)c4cc(Cl)ccc4F)cc3)nc(NCCN(C)CCOC(=O)CC(C)C)c12 [Compound 83, 2-{[2-({6-[4-(5-chloro-2-fluorobenzenesulfonamido)phenyl]-3-methyl-1H-pyrazolo[3,4-d]pyrimidin-4-yl}amino)ethyl](methyl)amino}ethyl 3-methylbutanoate] | –
75 µM (≈ 40.1 µg/mL) | 0.66 µM (≈ 0.353 µg/mL) | 40.9 ng/mL | 3.1% | 26 h | 4.9 h | 6.7% | 354 ng/mL | Cc1n[nH]c2nc(-c3ccc(NS(=O)(=O)c4cc(Cl)ccc4F)cc3)nc(OCCN(C)CCO)c12 [Compound 86, 5-chloro-2-fluoro-N-[4-(4-{2-[(2-hydroxyethyl)(methyl)amino]ethoxy}-3-methyl-1H-pyrazolo[3,4-d]pyrimidin-6-yl)phenyl]benzenesulfonamide] | –
290 µM | 0.6 µM | 1020 ng/mL | 7.5% | 2 h | – | – | – | CC(=O)OCCN(C)CCNc1nc(-c2ccc(NS(=O)(=O)c3cc(Cl)ccc3F)cc2)nc2[nH]nc(C)c12 [Compound 87, 2-[[2-([6-[4-(5-chloro-2-fluorobenzenesulfonamido)phenyl]-3-methyl-1H-pyrazolo[3,4-d]pyrimidin-4-yl]amino)ethyl](methyl)amino]ethyl acetate] | –
– | – | 14.5 ng/mL | 1.6% | 4.3 h | – | – | – | Cc1n[nH]c2nc(-c3ccc(NS(=O)(=O)c4cc(Cl)ccc4F)cc3)nc(NCCN(C)CCOP(=O)(O)O)c12 [Compound 88, 2-{[2-({6-[4-(5-chloro-2-fluorobenzenesulfonamido)phenyl]-3-methyl-1H-pyrazolo[3,4-d]pyrimidin-4-yl}amino)ethyl](methyl)amino}ethoxyphosphonic acid] | –
– | – | 1740 ng/mL | 11% | 1.2 h | – | – | – | Cc1n[nH]c2nc(-c3ccc(NS(=O)(=O)c4cc(Cl)ccc4F)cc3)nc(NCCN(C)CCOC(=O)C(C)C)c12 [Compound 89, 2-{[2-({6-[4-(5-chloro-2-fluorobenzenesulfonamido)phenyl]-3-methyl-1H-pyrazolo[3,4-d]pyrimidin-4-yl}amino)ethyl](methyl)amino}ethyl 2-methylpropanoate trifluoroacetic acid] | –
– | – | 523 ng/mL | 5.5% | 2.4 h | – | – | – | CCC(=O)OCCN(C)CCNc1nc(-c2ccc(NS(=O)(=O)c3cc(Cl)ccc3F)cc2)nc2[nH]nc(C)c12 [Compound 90, 2-{[2-({6-[4-(5-chloro-2-fluorobenzenesulfonamido)phenyl]-3-methyl-1H-pyrazolo[3,4-d]pyrimidin-4-yl}amino)ethyl](methyl)amino}ethyl propanoate; bis(trifluoroacetic acid)] | –
– | – | 319 ng/mL | 2.2% | 4.5 h | – | – | – | CCCC(=O)OCCN(C)CCNc1nc(-c2ccc(NS(=O)(=O)c3cc(Cl)ccc3F)cc2)nc2[nH]nc(C)c12 [Compound 91, 2-{[2-({6-[4-(5-chloro-2-fluorobenzenesulfonamido)phenyl]-3-methyl-1H-pyrazolo[3,4-d]pyrimidin-4-yl}amino)ethyl](methyl)amino}ethyl butanoate trifluoroacetic acid] | –
– | – | – | – | – | 3.3 h | 24% | 267 ng/mL | COc1cc(-c2nc(NCCN(C)C)c3c(C)n[nH]c3n2)ccc1NS(=O)(=O)c1cc(F)ccc1F [Compound 96, N-[4-(4-{[2-(dimethylamino)ethyl]amino}-3-methyl-1H-pyrazolo[3,4-d]pyrimidin-6-yl)-2-methoxyphenyl]-2,5-difluorobenzenesulfonamide] | –
– | – | – | – | – | 3.8 h | 39.5% | 2480 ng/mL | Cc1n[nH]c2nc(-c3ccc(NS(=O)(=O)c4cc(OC(C)C)ccn4)c(Cl)c3)nc(NCCN(C)C)c12 [Compound 100, N-[2-chloro-4-(4-{[2-(dimethylamino)ethyl]amino}-3-methyl-1H-pyrazolo[3,4-d]pyrimidin-6-yl)phenyl]-4-isopropoxypyridine-2-sulfonamide] | –
– | – | – | – | – | 3.8 h | 75% | 8120 ng/mL | Cc1n[nH]c2nc(-c3ccc(NS(=O)(=O)c4cc(Cl)ccc4F)c(Cl)c3)nc(OC3CCN(C)CC3)c12 [Compound 101, 5-chloro-N-(2-chloro-4-{3-methyl-4-[(1-methylpiperidin-4-yl)oxy]-1H-pyrazolo[3,4-d]pyrimidin-6-yl}phenyl)-2-fluorobenzenesulfonamide] | –
136 µM (≈ 70.5 µg/mL) | 1.61 µM (≈ 0.834 µg/mL) | – | – | – | – | – | – | Cc1n[nH]c2nc(-c3ccc(NS(=O)(=O)c4cc(Cl)ccc4F)cc3)nc(N(C)CCN(C)C)c12 [Compound 154, 5-chloro-N-(4-(4-((2-(dimethylamino)ethyl)(methyl)amino)-3-methyl-1H-pyrazolo[3,4-d]pyrimidin-6-yl)phenyl)-2-fluorobenzenesulfonamide] | –
– | – | – | – | – | 7.5 h | 5.3% | 283 ng/mL | Cc1n[nH]c2nc(-c3ccc(NS(=O)(=O)c4cc(F)ccc4F)c(F)c3)nc(O[C@@H]3CCNC[C@@H]3F)c12 [Compound 155] | –
– | – | – | – | – | 5.2 h | 12% | 548 ng/mL | Cc1n[nH]c2nc(-c3ccc(NS(=O)(=O)c4cc(F)ccc4F)c(Cl)c3)nc(O[C@@H]3CCNC[C@@H]3F)c12 [Compound 156, N-[2-chloro-4-(4-{[(3S,4R)-3-fluoropiperidin-4-yl]oxy}-3-methyl-1H-pyrazolo[3,4-d]pyrimidin-6-yl)phenyl]-2,5-difluorobenzenesulfonamide hydrochloride] | –
